# Patent US20230339937A1, “CONDENSED RING COMPOUNDS THAT INHIBIT H-PGDS” (SATO PHARMACEUTICAL CO., LTD., priority 2020, published 2023)
# Target: T1, Recombinant human H-PGDS (Homo sapiens, UniProt O60760)
# T1 construct: made in house; host or cells: E. coli
# Assay: H-PGDS inhibitory activity (prostaglandin D2 production from prostaglandin H2, measured by LC-MS/MS)
# Assay type: biochemical
# Settings: recombinant human H-PGDS 1.0 nM expressed in E. coli; prostaglandin H2 25 μM; preincubated 15 minutes on ice, reacted on ice for 1 minute; concentration that inhibits prostaglandin D2 production by 50%
# Summary of the method: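 PGD2 formed from 25 µM prostaglandin H2 during a 1-min on-ice reaction was measured by LC-MS/MS after an FeCl2/citric acid stop. The enzyme was 1.0 nM E. coli-expressed human H-PGDS in Tris-HCl pH 8.0 buffer with MgCl2, reduced glutathione and γ-globulin, preincubated with compound for 15 min on ice. Production was normalised to DMSO controls minus the no-enzyme background.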
# T1 sequence (O60760 whole entry): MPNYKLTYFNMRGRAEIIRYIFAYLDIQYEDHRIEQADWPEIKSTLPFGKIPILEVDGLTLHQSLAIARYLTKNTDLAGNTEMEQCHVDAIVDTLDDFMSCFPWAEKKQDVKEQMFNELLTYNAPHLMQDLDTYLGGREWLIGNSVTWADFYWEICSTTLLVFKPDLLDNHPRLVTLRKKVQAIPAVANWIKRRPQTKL
row,SMILES,IC50
1,"CC(C)[C@]1(O)CC[C@@H](NC(=O)c2ccc(-c3nccc4occc34)cc2)CC1 [Example 292, 4-(furo[3,2-c]pyridin-4-yl)-N-(cis-4-hydroxy-4-isopropylcyclohexyl)benzamide]",1.9 nM
2,"O=C(N[C@H]1CC[C@H](NCC(F)F)CC1)c1ccc(-c2nccc3occc23)cc1 [Example 294, N-{trans-4-[(2,2-difluoroethyl)amino]cyclohexyl}-4-(furo[3,2-c]pyridin-4-yl)benzamide]",1.1 nM
3,"O=C(N[C@H]1CC[C@H](NC2COC2)CC1)c1ccc(-c2nccc3occc23)cc1 [Example 295, 4-(furo[3,2-c]pyridin-4-yl)-N-[trans-4-(oxetan-3-ylamino)cyclohexyl]benzamide]",2.1 nM
4,"CC(=O)N[C@H]1CC[C@H](NC(=O)c2ccc(-c3nccc4occc34)cc2)CC1 [Example 296, N-(trans-4-acetamidocyclohexyl)-4-(furo[3,2-c]pyridin-4-yl)benzamide]",2.9 nM
5,"Cc1nnnn1[C@H]1CC[C@H](NC(=O)c2ccc(-c3nccc4occc34)cc2)CC1 [Example 297, 4-(furo[3,2-c]pyridin-4-yl)-N-[trans-4-(5-methyl-1H-tetrazol-1-yl)cyclohexyl]benzamide]",1.9 nM
6,"CCC(=O)N[C@H]1CC[C@H](NC(=O)c2ccc(-c3nccc4occc34)cc2)CC1 [Example 298, 4-(furo[3,2-c]pyridin-4-yl)-N-(trans-4-propionamidocyclohexyl)benzamide]",3.4 nM
7,"O=C(N[C@H]1CC[C@H](N2CCCC2=O)CC1)c1ccc(-c2nccc3occc23)cc1 [Example 299, 4-(furo[3,2-c]pyridin-4-yl)-N-[trans-4-(2-oxopyrrolidin-1-yl)cyclohexyl]benzamide]",4 nM
8,"O=C(N[C@H]1CC[C@H](N2CCCCC2=O)CC1)c1ccc(-c2nccc3occc23)cc1 [Example 300, 4-(furo[3,2-c]pyridin-4-yl)-N-[trans-4-(2-oxopiperidin-1-yl)cyclohexyl]benzamide]",4.7 nM
9,"COCCN[C@H]1CC[C@H](NC(=O)c2ccc(-c3nccc4occc34)cc2)CC1 [Example 301, 4-(furo[3,2-c]pyridin-4-yl)-N-{trans-4-[(2-methoxyethyl)amino]cyclohexyl}benzamide]",11 nM
10,"CC(N[C@H]1CC[C@H](NC(=O)c2ccc(-c3nccc4occc34)cc2)CC1)C(F)F (stereo partly drawn) [Example 302, N-{trans-4-[(1,1-difluoropropan-2-yl)amino]cyclohexyl}-4-(furo[3,2-c]pyridin-4-yl)benzamide]",3.2 nM
11,"O=C1CCC(NC(=O)c2ccc(-c3nccc4occc34)cc2)CC1 [Example 303, 4-(furo[3,2-c]pyridin-4-yl)-N-(4-oxocyclohexyl)benzamide]",2.1 nM
12,"O=C(N[C@H]1CC[C@H](N2CC(F)(F)C2)CC1)c1ccc(-c2nccc3occc23)cc1 [Example 304, N-[trans-4-(3,3-difluoroazetidin-1-yl)cyclohexyl]-4-(furo[3,2-c]pyridin-4-yl)benzamide]",9.2 nM
13,"O=C(N[C@H]1CC[C@H](N2CCOCC2)CC1)c1ccc(-c2nccc3occc23)cc1 [Example 305, 4-(furo[3,2-c]pyridin-4-yl)-N-(trans-4-morpholinocyclohexyl)benzamide]",55 nM
14,"O=C(N[C@H]1CC[C@H](N2CCC(F)(F)C2)CC1)c1ccc(-c2nccc3occc23)cc1 [Example 306, N-[trans-4-(3,3-difluoropyrrolidin-1-yl)cyclohexyl]-4-(furo[3,2-c]pyridin-4-yl)benzamide]",1.8 nM
15,"O=C(NC1CCC(N2CCC(F)(F)CC2)CC1)c1ccc(-c2nccc3occc23)cc1 (stereo not shown) [Example 307, N-[4-(4,4-difluoropiperidin-1-yl)cyclohexyl]-4-(furo[3,2-c]pyridin-4-yl)benzamide]",2.2 nM
16,"CCC(O)[C@H]1CC[C@H](NC(=O)c2ccc(-c3nccc4occc34)cc2)CC1 (stereo partly drawn) [Example 308, 4-(furo[3,2-c]pyridin-4-yl)-N-[trans-4-(1-hydroxypropyl)cyclohexyl]benzamide]",1.5 nM
17,"O=C(N[C@H]1CC[C@H](C(O)C(F)(F)F)CC1)c1ccc(-c2nccc3occc23)cc1 (stereo partly drawn) [Example 309, 4-(furo[3,2-c]pyridin-4-yl)-N-[trans-4-(2,2,2-trifluoro-1-hydroxyethyl)cyclohexyl]benzamide]",1.9 nM
18,"O=C(N[C@H]1CC[C@H](C(F)F)CC1)c1ccc(-c2nccc3occc23)cc1 [Example 310, N-[trans-4-(difluoromethyl)cyclohexyl]-4-(furo[3,2-c]pyridin-4-yl)benzamide]",2.6 nM
19,"COCCO[C@H]1CC[C@H](NC(=O)c2ccc(-c3nccc4occc34)cc2)CC1 [Example 311, 4-(furo[3,2-c]pyridin-4-yl)-N-[trans-4-(2-methoxyethoxy)cyclohexyl]benzamide]",2.5 nM

row,SMILES,IC50
1,"CC(C)(O)[C@H]1CC[C@H](NC(=O)c2ccc(-c3nc(Cl)cc4occc34)cc2)CC1 [Example 312, 4-(6-chlorofuro[3,2-c]pyridin-4-yl)-N-[trans-4-(2-hydroxypropan-2-yl)cyclohexyl]benzamide]",1.8 nM
2,"C=Cc1cc2occc2c(-c2ccc(C(=O)N[C@H]3CC[C@H](C(C)(C)O)CC3)cc2)n1 [Example 313, N-[trans-4-(2-hydroxypropan-2-yl)cyclohexyl]-4-(6-vinylfuro[3,2-c]pyridin-4-yl)benzamide]",169 nM
3,"CCc1cc2occc2c(-c2ccc(C(=O)N[C@H]3CC[C@H](C(C)(C)O)CC3)cc2)n1 [Example 314, 4-(6-ethylfuro[3,2-c]pyridin-4-yl)-N-[trans-4-(2-hydroxypropan-2-yl)cyclohexyl]benzamide]",70 nM
4,"CC(C)(O)[C@H]1CC[C@H](NC(=O)c2ccc(-c3nc(N)cc4occc34)cc2)CC1 [Example 315, 4-(6-aminofuro[3,2-c]pyridin-4-yl)-N-[trans-4-(2-hydroxypropan-2-yl)cyclohexyl]benzamide]",2.6 nM
5,"CC(C)(O)[C@H]1CC[C@H](NC(=O)c2ccc(-c3nc(F)cc4occc34)cc2)CC1 [Example 316, 4-(6-fluorofuro[3,2-c]pyridin-4-yl)-N-[trans-4-(2-hydroxypropan-2-yl)cyclohexyl]benzamide]",1.5 nM
6,"CC(C)(O)[C@H]1CC[C@H](NC(=O)c2ccc(-c3nc(C#N)cc4occc34)cc2)CC1 [Example 317, 4-(6-cyanofuro[3,2-c]pyridin-4-yl)-N-[trans-4-(2-hydroxypropan-2-yl)cyclohexyl]benzamide]",51 nM
7,"CC(C)(O)[C@H]1CC[C@H](NC(=O)c2ccc(-c3nc(C(N)=O)cc4occc34)cc2)CC1 [Example 318, 4-(4-{[trans-4-(2-hydroxypropan-2-yl)cyclohexyl]carbamoyl}phenyl)furo[3,2-c]pyridine-6-carboxamide]",367 nM
8,"CC(C)(O)[C@H]1CC[C@H](NC(=O)c2ccc(-c3nc(CO)cc4occc34)cc2)CC1 [Example 319, 4-[6-(hydroxymethyl)furo[3,2-c]pyridin-4-yl]-N-[trans-4-(2-hydroxypropan-2-yl)cyclohexyl]benzamide]",1.6 nM
9,"[2H]C([2H])(O)c1cc2occc2c(-c2ccc(C(=O)N[C@H]3CC[C@H](C(C)(C)O)CC3)cc2)n1 [Example 320, 4-[6-(hydroxymethyl-d2)furo[3,2-c]pyridin-4-yl]-N-[trans-4-(2-hydroxypropan-2-yl)cyclohexyl]benzamide]",0.9 nM
10,"Cc1cc2occc2c(-c2ccc(C(=O)N[C@H]3CC[C@H](C(C)(C)O)CC3)cc2F)n1 [Example 321, 3-fluoro-N-[trans-4-(2-hydroxypropan-2-yl)cyclohexyl]-4-(6-methylfuro[3,2-c]pyridin-4-yl)benzamide]",5.5 nM
11,"CC(C)(O)[C@H]1CC[C@H](NC(=O)c2ccc(-c3nc(CO)cc4occc34)c(F)c2)CC1 [Example 322, 3-fluoro-4-[6-(hydroxymethyl)furo[3,2-c]pyridin-4-yl]-N-[trans-4-(2-hydroxypropan-2-yl)cyclohexyl]benzamide]",3.2 nM
12,"Cn1nnnc1N1CCC(NC(=O)c2ccc(-c3nccc4occc34)c(F)c2)CC1 [Example 323, 3-fluoro-4-(furo[3,2-c]pyridin-4-yl)-N-[1-(1-methyl-1H-tetrazol-5-yl)piperidin-4-yl]benzamide]",1.1 nM
13,"O=C(NC1CCN(C(=O)C2CC2)CC1)c1ccc(-c2nccc3occc23)c(F)c1 [Example 324, N-[1-(cyclopropanecarbonyl)piperidin-4-yl]-3-fluoro-4-(furo[3,2-c]pyridin-4-yl)benzamide]",1.3 nM
14,"O=C(N[C@H]1CC[C@H](O)CC1)c1ccc(-c2nccc3occc23)c(F)c1 [Example 325, 3-fluoro-4-(furo[3,2-c]pyridin-4-yl)-N-(trans-4-hydroxycyclohexyl)benzamide]",2.3 nM
15,"O=C(N[C@H]1CC[C@H](NCC(F)F)CC1)c1ccc(-c2nccc3occc23)c(F)c1 [Example 326, N-{trans-4-[(2,2-difluoroethyl)amino]cyclohexyl}-3-fluoro-4-(furo[3,2-c]pyridin-4-yl)benzamide]",1.3 nM
16,"O=C(N[C@H]1CC[C@H](C2(O)CC2)CC1)c1ccc(-c2nccc3occc23)c(F)c1 [Example 327, 3-fluoro-4-(furo[3,2-c]pyridin-4-yl)-N-[trans-4-(1-hydroxycyclopropyl)cyclohexyl]benzamide]",1.1 nM
17,"O=C(N[C@H]1CCN(c2ncccn2)C1)c1ccc(-c2nccc3occc23)c(F)c1 [Example 328, (S)-3-fluoro-4-(furo[3,2-c]pyridin-4-yl)-N-[1-(pyrimidin-2-yl)pyrrolidin-3-yl]benzamide]",0.74 nM
18,"CC(C)(O)CO[C@H]1CC[C@H](NC(=O)c2ccc(-c3nccc4occc34)c(F)c2)CC1 [Example 329, 3-fluoro-4-(furo[3,2-c]pyridin-4-yl)-N-[trans-4-(2-hydroxy-2-methylpropoxy)cyclohexyl]benzamide]",2 nM
